Experimental data published in PMC10214526, “Semisynthetic LC3 Probes for Autophagy Pathways Reveal a Noncanonical LC3 Interacting Region Motif Crucial for the Enzymatic Activity of Human ATG3” (ACS Central Science, 2023).

System: ATG3 C1
Assay: NaCl dependence of cross-linking of probe 2 with ATG3 C1
Assay type: biochemical, human
Details: probe 2 15 μM, ATG3 C1 15 μM, phosphate buffer, NaCl 0-500 mM, 37 °C, 30 min; n = 3
Description: Farnung et al. Supplementary Information […]
electrostatic representation of ATG3 LIR motif and GABARAP
Figure S13. Interaction of ATG3 and GABARAP is salt-dependent. a, ColabFold prediction of ATG3-GABARAP complex (in Fig. 1c) shown with its Coulombic potential. Only LIR motif of ATG3 shown for clarity.
LIRATG3 is mostly negatively charged and binds to a strongly positively charged surface on GABARAP. b, Binding of cyclized LIRATG3 peptide to GABARAP (0.2 μM) in the presence of varying amounts of NaCl. Binding was performed in triplicates and normalized to polarization for 0 mM NaCl. c, Modification of ATG3 C1 with 2 in the presence of increasing concentrations of NaCl (0 -500 mM). Coomassie Blue stained SDS-PAGE gel was analyzed by gel densitometry. d, Quantification of data shown in […]. […]
Figure S14. […] Lipidation was assessed by immunoblotting against LC3A/B. Lipidation was observed upon re-expression of ATG3 wt but not ATG3 C264A or ΔLIR. As a positive control wild-type HEK293T cells were starved and analyzed in parallel to ATG3 –/– cells. […]
SDS-PAGE (8-16%, Bio-Rad) and visualized by Coomassie staining. Gel bands were quantified by gel densitometry using ImageLab (Bio-Rad).
ATG3 C1 (15 μM) was mixed with GABARAP methyl fumarate 2 (15 μM) in PBS, and the reaction mixture was incubated at 37 °C for 30 min. […] Gel bands were quantified by gel densitometry using ImageLab […]

## GABARAP(ΔG116)–NHNH methyl-fumarate [compound 2]
  Effect of increasing NaCl on cross-linking with ATG3 C1: reduced
